IC50 data for 21 molecules are collected here from US12624018B1, “Inhibitors of RIPK2 and medical uses thereof” (Odyssey Therapeutics, Inc., priority 2022, dated 2026).

Assay [1] addresses T1, RIPK2 and XIAP protein-protein interaction (Homo sapiens, UniProt O43353).
T1 construct: the N-terminus of full-length RIPK2 was appended with the HaloTag fusion protein; expressed in transfected cells; host or cells: HEK293T
The assay can be described thus: Inhibition of the interaction of RIPK2 with XIAP (NanoBRET in HEK293T cells). As to conditions: RIPK2 HaloTag / XIAP NanoLuc, read-out: NanoBRET Scaffolding IC50. It counts as cell-based. The procedure, abridged: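 HEK293T cells transiently co-transfected with HaloTag-RIPK2 (N-terminal) and XIAP-NanoLuc (C-terminal) full-length fusions, grown 24 h at 37° C. in Opti-MEM with 4% FBS. Compounds tested as 10-point 3-fold dilutions; NanoBRET ratio taken as 618 nm acceptor over 460 nm donor emission.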
A general note: Bioluminescence resonance energy transfer reports proximity on the nanometre scale.

A further assay concerns human NOD2 signaling. Description: Inhibition of human NOD2 signaling in HEK-Blue-hNOD2 cells (L18-MDP stimulated, SEAP reporter). In kind it is cell-based. As to conditions: Homo sapiens, HEK-Blue hNOD2, HEK-Blue-hNOD2 cells, NOD2 ligand stimulation, SEAP reporter; read-out: hNOD2 IC50. The procedure, abridged:
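Read-out is SEAP absorbance at 620 nm after 3 h QUANTI-Blue development of supernatant from HEK293 cells carrying NOD2 and a SEAP reporter (12500/well). Cells got compound (10 points, 3-fold dilutions) and 0.5 ng/mL L18-MDP for 24 h at 37 °C; percent inhibition vs stimulated/unstimulated controls, 4-parameter IC50.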

Another assay has as its target T2, RIPK2 enzyme (Homo sapiens, UniProt O43353).
T2 construct: purchased Carna 09-128
The assay can be described thus: RIPK2 inhibition (ADP-Glo Kinase Assay). As to conditions: RIPK2 5 nM, ATP 150 μM, MBP substrate, read-out: RIPK2 IC50. It counts as biochemical. The procedure, abridged: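 Swine MBP substrate; compound and 5 nM RIPK2 first mixed for 30 min at room temperature; buffer pH 7.5 HEPES 50 mM with 10 mM MgCl2, 2 mM DTT, 1 mM EGTA, Brij-35, BSA.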
(In general: ADP-Glo turns the ADP formed in a reaction into a luminescent signal.)

Bounds are passed on as bounds.

T2 sequence (O43353 1-299 limits assumed): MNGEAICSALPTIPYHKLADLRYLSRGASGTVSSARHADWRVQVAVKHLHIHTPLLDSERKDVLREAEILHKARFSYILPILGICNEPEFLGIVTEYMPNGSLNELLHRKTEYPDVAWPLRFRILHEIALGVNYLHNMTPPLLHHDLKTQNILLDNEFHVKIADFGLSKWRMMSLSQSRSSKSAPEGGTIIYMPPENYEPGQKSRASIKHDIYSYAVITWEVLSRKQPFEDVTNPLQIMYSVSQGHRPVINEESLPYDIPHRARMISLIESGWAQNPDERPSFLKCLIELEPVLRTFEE
T1 sequence (O43353 whole entry, the tested form may be a part): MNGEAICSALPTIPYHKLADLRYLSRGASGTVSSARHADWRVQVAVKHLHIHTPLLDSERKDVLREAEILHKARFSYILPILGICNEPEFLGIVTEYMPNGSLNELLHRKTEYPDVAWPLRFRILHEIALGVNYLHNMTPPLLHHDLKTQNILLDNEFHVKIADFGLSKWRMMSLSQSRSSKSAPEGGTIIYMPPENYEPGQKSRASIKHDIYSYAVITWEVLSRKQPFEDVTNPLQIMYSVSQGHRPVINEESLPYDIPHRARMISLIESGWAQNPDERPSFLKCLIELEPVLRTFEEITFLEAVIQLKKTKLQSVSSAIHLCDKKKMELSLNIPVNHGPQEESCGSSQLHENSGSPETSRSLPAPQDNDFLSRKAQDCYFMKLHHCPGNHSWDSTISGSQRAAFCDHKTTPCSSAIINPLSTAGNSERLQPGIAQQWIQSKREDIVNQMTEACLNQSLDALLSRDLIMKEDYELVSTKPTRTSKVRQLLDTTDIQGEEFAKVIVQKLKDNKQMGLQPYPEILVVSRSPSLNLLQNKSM

On to `CNC(=O)c1ccc2nccc(Oc3cc(F)c(CC(=O)Nc4cnn(C(C)(C)C)c4)c(F)c3C)c2c1` [Compound 504, 4-(4-(2-((1-(tert-butyl)-1H-pyrazol-4-yl)amino)-2-oxoethyl)-3,5-difluoro-2-methylphenoxy)-N-methylquinoline-6-carboxamide], for which the figures for the IC50 (in assay [1]; in the assay with human NOD2 signaling; on RIPK2 enzyme) were 3.4 nM, 0.2 nM and under 2.5 nM, respectively.

In the case of `Cc1cc(CC(=O)Nc2cnn(C(C)(C)C)c2)cc(C)c1Oc1ccnc2ccc(C(N)=O)cc12` [Compound 505, 4-(4-(2-((1-(tert-butyl)-1H-pyrazol-4-yl)amino)-2-oxoethyl)-2,6-dimethylphenoxy)quinoline-6-carboxamide], the IC50 is 128 nM in assay [1], 3.5 nM in the assay with human NOD2 signaling and under 2.5 nM on RIPK2 enzyme.

Turning to `CNC(=O)c1ccc2nccc(Oc3c(C)cc(CC(=O)Nc4cnn(C(C)(C)C)c4)cc3C)c2c1` [Compound 506, 4-(4-(2-((1-(tert-butyl)-1H-pyrazol-4-yl)amino)-2-oxoethyl)-2,6-dimethylphenoxy)-N-methylquinoline-6-carboxamide], the figures for the IC50 (in assay [1]; in the assay on human NOD2 signaling; on RIPK2 enzyme) were 73.6 nM, 2.2 nM and under 2.5 nM, respectively.

As for `NC(=O)c1ccc2nccc(Oc3cc(F)c(CC(=O)Nc4cnn(C56CC(C5)C6)c4)cc3Cl)c2c1` [Compound 509, 4-(4-(2-((1-(bicyclo[1.1.1]pentan-1-yl)-1H-pyrazol-4-yl)amino)-2-oxoethyl)-2-chloro-5-fluorophenoxy)quinoline-6-carboxamide], the IC50 in assay [1] was 189 nM; with human NOD2 signaling, 14.2 nM; on RIPK2 enzyme, under 2.5 nM.

Turning to `CNC(=O)c1ccc2nccc(Oc3cc(F)c(CC(=O)Nc4cnn(C56CC(C5)C6)c4)cc3Cl)c2c1` [Compound 510, 4-(4-(2-((1-(bicyclo[1.1.1]pentan-1-yl)-1H-pyrazol-4-yl)amino)-2-oxoethyl)-2-chloro-5-fluorophenoxy)-N-methylquinoline-6-carboxamide], the IC50 was 172 nM in assay [1], 8.4 nM with human NOD2 signaling and under 2.5 nM on RIPK2 enzyme.

Turning to `Cc1cc(CC(=O)Nc2cnn(C(C)(C)C)c2)c(F)cc1Oc1ccnc2ccc(C(=O)NC34CC(C3)C4)cc12` [Compound 513, N-(bicyclo[1.1.1]pentan-1-yl)-4-(4-(2-((1-(tert-butyl)-1H-pyrazol-4-yl)amino)-2-oxoethyl)-5-fluoro-2-methylphenoxy)quinoline-6-carboxamide], the IC50 in assay [1] was 34.4 nM; in the assay with human NOD2 signaling, 3.1 nM; at RIPK2 enzyme, under 2.5 nM.

In the case of `CNC(=O)c1ccc2nccc(Oc3c(C)cc(CC(=O)Nc4cnn(C(C)(C)C)c4)cc3Cl)c2c1` [Compound 515, 4-(4-(2-((1-(tert-butyl)-1H-pyrazol-4-yl)amino)-2-oxoethyl)-2-chloro-6-methylphenoxy)-N-methylquinoline-6-carboxamide], the IC50 is 170 nM in assay [1], 1.4 nM in the assay on human NOD2 signaling and under 2.5 nM on RIPK2 enzyme.

Take `Cc1cc(CC(=O)Nc2cnn(C(C)(C)C)c2)cc(Cl)c1Oc1ccnc2ccc(C(N)=O)cc12` [Compound 516, 4-(4-(2-((1-(tert-butyl)-1H-pyrazol-4-yl)amino)-2-oxoethyl)-2-chloro-6-methylphenoxy)quinoline-6-carboxamide]: the IC50 in assay [1] was 103 nM; with human NOD2 signaling, 1 nM; on RIPK2 enzyme, under 2.5 nM.

With `CC1(NC(=O)c2ccc3nccc(Oc4cc(F)c(CC(=O)Nc5cnn(C(C)(C)C)c5)cc4Cl)c3c2)CC1` [Compound 517, 4-(4-(2-((1-(tert-butyl)-1H-pyrazol-4-yl)amino)-2-oxoethyl)-2-chloro-5-fluorophenoxy)-N-(1-methylcyclopropyl)quinoline-6-carboxamide], the IC50 in assay [1] is 311 nM; with human NOD2 signaling it was 2.7 nM; on RIPK2 enzyme it was under 2.5 nM.

For `Cc1c(CC(=O)Nc2cnn(C(C)(C)C)c2)ccc(Oc2ccnc3ccc(S(C)(=O)=O)cc23)c1C` [Compound 518, N-(1-(tert-butyl)-1H-pyrazol-4-yl)-2-(2,3-dimethyl-4-((6-(methylsulfonyl)quinolin-4-yl)oxy)phenyl)acetamide], the IC50 in assay [1] was 26.9 nM; in the assay on human NOD2 signaling it was 1.5 nM; at RIPK2 enzyme, under 2.5 nM.

As to `Cc1cc(CC(=O)Nc2cnn(C(C)(C)C)c2)c(F)cc1Oc1ccnc2ccc(-c3nccnc3C(F)(F)F)cc12` [Compound 523, N-(1-(tert-butyl)-1H-pyrazol-4-yl)-2-(2-fluoro-5-methyl-4-((6-(3-(trifluoromethyl)pyrazin-2-yl)quinolin-4-yl)oxy)phenyl)acetamide], the IC50 in assay [1] came to 133 nM; in the assay with human NOD2 signaling, 18.5 nM; on RIPK2 enzyme, 4.9 nM.

On to `Cc1c(Oc2ccnc3ccc(C(N)=O)cc23)cc(F)c(CC(=O)Nc2cnn(C34CC(C3)C4)c2)c1F` [Compound 556, 4-(4-(2-((1-(bicyclo[1.1.1]pentan-1-yl)-1H-pyrazol-4-yl)amino)-2-oxoethyl)-3,5-difluoro-2-methylphenoxy)quinoline-6-carboxamide], for which the values for the IC50 (in assay [1]; with human NOD2 signaling; on RIPK2 enzyme) were 42.1 nM, 0.9 nM and under 2.5 nM, respectively.

Turning to `CNC(=O)c1ccc2nccc(Oc3cc(F)c(CC(=O)Nc4cnn(C56CC(C5)C6)c4)c(F)c3C)c2c1` [Compound 557, 4-(4-(2-((1-(bicyclo[1.1.1]pentan-1-yl)-1H-pyrazol-4-yl)amino)-2-oxoethyl)-3,5-difluoro-2-methylphenoxy)-N-methylquinoline-6-carboxamide], the IC50 in assay [1] was 35.1 nM; in the assay with human NOD2 signaling, 0.3 nM; at RIPK2 enzyme, under 2.5 nM.

For `[2H]C([2H])([2H])NC(=O)c1ccc2nccc(Oc3cc(F)c(CC(=O)Nc4cnn(C56CC(C5)C6)c4)c(F)c3C)c2c1` [Compound 558, 4-(4-(2-((1-(bicyclo[1.1.1]pentan-1-yl)-1H-pyrazol-4-yl)amino)-2-oxoethyl)-3,5-difluoro-2-methylphenoxy)-N-(methyl-d3)quinoline-6-carboxamide], the IC50 was 57.3 nM in assay [1], 0.7 nM in the assay on human NOD2 signaling and under 2.5 nM at RIPK2 enzyme.

For `Cc1cc(CC(=O)Nc2cnn(C(C)(C)C)c2)ccc1Oc1ccnc2ccc(CS(C)(=O)=O)cc12` [Compound 560, N-(1-(tert-butyl)-1H-pyrazol-4-yl)-2-(3-methyl-4-((6-((methylsulfonyl)methyl)quinolin-4-yl)oxy)phenyl)acetamide], the IC50 in assay [1] is 301 nM; with human NOD2 signaling, 8.9 nM; at RIPK2 enzyme, under 2.5 nM.

As to `Cc1c(Oc2ccnc3ccc(CS(C)(=O)=O)cc23)cc(F)c(CC(=O)Nc2cnn(C(C)(C)C)c2)c1F` [Compound 562, N-(1-(tert-butyl)-1H-pyrazol-4-yl)-2-(2,6-difluoro-3-methyl-4-((6-((methylsulfonyl)methyl)quinolin-4-yl)oxy)phenyl)acetamide], the IC50 in assay [1] is 61.1 nM; with human NOD2 signaling, 1.2 nM; at RIPK2 enzyme, under 2.5 nM.

For the molecule `Cc1cc(CC(=O)Nc2cnn(C(C)(C)C)c2)c(F)cc1Oc1ccnc2ccc(CC(N)=O)cc12` [Compound 566, 2-(4-((6-(2-amino-2-oxoethyl)quinolin-4-yl)oxy)-2-fluoro-5-methylphenyl)-N-(1-(tert-butyl)-1H-pyrazol-4-yl)acetamide], the IC50 in assay [1] is 459 nM; with human NOD2 signaling it was 11.1 nM; on RIPK2 enzyme, under 2.5 nM.

With `Cc1cc(CC(=O)Nc2cnn(C(C)(C)C)c2)c(F)cc1Oc1ccnc2ccc(C(C)(C)C(N)=O)cc12` [Compound 568, 2-(4-(4-(2-((1-(tert-butyl)-1H-pyrazol-4-yl)amino)-2-oxoethyl)-5-fluoro-2-methylphenoxy)quinolin-6-yl)-2-methylpropanamide], the IC50 in assay [1] was 179 nM; in the assay with human NOD2 signaling, 24.4 nM; at RIPK2 enzyme, under 2.5 nM.

For `Cc1cc(CC(=O)Nc2cnn(C(C)(C)C)c2)c(F)cc1Oc1ccnc2ccc(C(F)(F)C(N)=O)cc12` [Compound 572, 2-(4-(4-(2-((1-(tert-butyl)-1H-pyrazol-4-yl)amino)-2-oxoethyl)-5-fluoro-2-methylphenoxy)quinolin-6-yl)-2,2-difluoroacetamide], the IC50 in assay [1] is 37.2 nM; with human NOD2 signaling it was 1.1 nM; on RIPK2 enzyme, under 2.5 nM.

For the molecule `CNC(=O)c1cc2c(Oc3c(C)cc(CC(=O)Nc4cnn(C(C)(C)C)c4)cc3C)ccnc2cc1F` [Compound 582, 4-(4-(2-((1-(tert-butyl)-1H-pyrazol-4-yl)amino)-2-oxoethyl)-2,6-dimethylphenoxy)-7-fluoro-N-methylquinoline-6-carboxamide], the IC50 in assay [1] was 36.3 nM; in the assay on human NOD2 signaling it was 0.6 nM; at RIPK2 enzyme, under 2.5 nM.

Regarding `[2H]C([2H])([2H])NC(=O)c1cc2c(Oc3c(C)cc(CC(=O)Nc4cnn(C(C)(C)C)c4)cc3C)ccnc2cc1F` [Compound 583, 4-(4-(2-((1-(tert-butyl)-1H-pyrazol-4-yl)amino)-2-oxoethyl)-2,6-dimethylphenoxy)-7-fluoro-N-(methyl-d3)quinoline-6-carboxamide], the IC50 is 42.4 nM in assay [1], 1.2 nM with human NOD2 signaling and under 2.5 nM at RIPK2 enzyme.
